# Data as given in publication PMC7961996, “Small Immunomodulatory Molecules as Potential Therapeutics in Experimental Murine Models of Acute Lung Injury (ALI)/Acute Respiratory Distress Syndrome (ARDS)” (International Journal of Molecular Sciences, 2021).
# Several values for one entry are separate records, joined by “and”; a condition that tells them apart may be missing. Equal entries are not always repeated. Where two headings read alike, the source gives them in different places.
# Key:
# [1] = Pharmacokinetic (toxicokinetic) study, plasma; format: in vivo, Sprague Dawley rats; conditions: for RAUC (RATIO): Day 3 AUC(0-t) / Day 1 AUC(0-t) / Cmax / Tmax / half-life / clearance / Vd / AUC(0-t): plasma; for Cmax / Tmax / half-life / clearance / Vd / AUC(0-t): Sprague Dawley, rat
# Protocol: For the PK study of AVR-48 in rats, a formulation consisting of 10% DMSO, 20% tetraglycol, 20% PEG 400, and 50% sterile water was developed. Each preparation was made on the same day of dose administration. The components of the control/vehicle item formulation were added sequentially. Briefly, the appropriate volume of DMSO (10% of the final volume) was measured into a container followed by gradual addition of PEG 400 (20% of the final volume) and sterile water (50% of the final volume) to make up the volume and mixed thoroughly till completely dissolved. The final solution was filtered through a 0.22 µm membrane filter (Millipore Millex® GP PES, St. Louis, MO, USA) into a sterile vial. All PK studies were also conducted with 8–10-week-old male and female Sprague Dawley rats. An additional nine animals/sex/dose were used for PK analysis and blood (approximately 0.3 mL each) was collected from each rat on days 1 and 3 of the treatment period at time points of 5, 30, 60, 90, 120, and 180 min, and 6, 12 h, and 24 h post dose that were randomized to provide a total of three samples/sex for each time point. Samples were collected by jugular venipuncture and the samples were collected into tubes containing the anticoagulant, K3EDTA. The collection of BALF was limited to the terminal time points of 6 h, 12 h, and 24 h. AVR-48 concentrations in the blood and BALF were determined using LC/MS/MS analysis developed in house. PK parameters were estimated using Phoenix pharmacokinetic software (Certara, Princeton, NJ, USA) using a non-compartmental approach consistent with the IV bolus injection.
# CLP-induced sepsis mice = test: CLP-induced lung and organ injury, histopathology scoring; format: in vivo, C57BL6/J mice
# Protocol: For CLP-induced lung injury, CLP was performed as previously described by us. As antibiotics are the standard of care in sepsis patients, one dose of imipenem was given SC at 5 mg/kg 30 min after the procedure, followed by two doses of AVR-48 (10 mg/kg, IV) at 16 h and 24 h following the surgery, and sacrificed after 72 h. The sham mice (controls) had the abdominal cavity opened, the cecum was not perforated, and the peritoneum was stitched back.
# H&E staining was performed on 5 µm paraffin lung tissue sections following standardized methods. Four to five random images per lung and 4–5 lungs per experimental group were characterized for lung injury score analysis.
# Two different scoring systems were used for lung injury scoring, as the experiments were done at different times. The LPS-/hyperoxia-induced ALI scoring was done by DS, while the CLP-induced lung and other organs’ scoring was done by two additional independent investigators (PD and BA). For the hyperoxia- and LPS-induced lung injury, scoring was done on histological sections based on neutrophil infiltration and epithelial injury using the methods as described before with modifications. Four to five random images per lung and 4–5 lungs per experimental group were characterized for lung injury score analysis. We used a 0–4 scoring system in which 0 = no infiltration/injury, 1 = minimal infiltration/injury to 25% of the field, 2 = mild infiltration/injury […] of the field, 3 = moderate infiltration/injury to 75% of the field, and 4 = severe infiltration/diffuse injury. For the CLP-induced ALI, scoring was done following the methodology as reported earlier by a qualified pathologist (BA) in masked manner. Lungs were harvested from all the mice after the endpoint, and lung injury was scored based on the criteria of alveolar damage and vascular congestion and hemorrhage. As CLP-induced sepsis also results in damage to the rest of the viscera, which can contribute to ALI/ARDS, other organs were also scored as above, to determine the recovery potential of AVR-48 as a candidate drug. The following (cells) were taken into account while scoring the injury level followed by recovery after treatment in other vital organs: heart (myocardium), kidney (glomeruli, tubules), gut (mucosal cells, enterocytes), spleen (lymphoid follicles), liver (hepatocytes), brain (neuronal damage), testis (Seminiferous tubules), and lymph nodes. The final scores were calculated on the basis of total percentage of the damaged/recovered area and by the number of areas/High power field (HPF) as reported above.
# [2] = AVR-48 10 mg/kg IV x2 after CLP
# [3] = after CLP, Mean ± SEM, CLP alone 4.8± 0.2
compound,measurement,setting,value
"CC(=O)N[C@H]1[C@H](Oc2ccc([N+](=O)[O-])cc2)O[C@H](CO)[C@@H](O)[C@@H]1O [AVR-48, N-((2S,3R,4R,5S,6R)-4,5-dihydroxy-6-(hydroxymethyl)-2-(4-nitrophenoxy)tetrahydro-2H-pyran-3-yl) acetamide]",RAUC (RATIO): Day 3 AUC(0-t) / Day 1 AUC(0-t),"[1]; 40 mg/kg IV, Female",0.679
same,RAUC (RATIO): Day 3 AUC(0-t) / Day 1 AUC(0-t),"[1]; 40 mg/kg IV, Male",0.928
same,RAUC (RATIO): Day 3 AUC(0-t) / Day 1 AUC(0-t),"[1]; 80 mg/kg IV, Female",0.953
same,RAUC (RATIO): Day 3 AUC(0-t) / Day 1 AUC(0-t),"[1]; 80 mg/kg IV, Male",0.777
same,Cmax,"[1]; iv, 40 mg/kg, 40 mg/kg dose IV, read-out: Cmax",364 ± 9.36 µM
same,Cmax,"[1]; iv, 80 mg/kg, 80 mg/kg dose IV, read-out: Cmax",749.3 ± 5.25 µM
same,Cmax,"[1]; other: IV or IP, 10 mg/kg, single IV or IP 10 mg/kg dose, extrapolated from Cmax at 40 mg/kg, read-out: Cmax in plasma expected for 10 mg/kg",~91 µM
same,Tmax,"[1]; Day 1, 40 mg/kg IV, Female",5 min
same,Tmax,"[1]; Day 1, 80 mg/kg IV, Female",5 min
same,Tmax,"[1]; Day 1, 80 mg/kg IV, Male",5 min
same,Tmax,"[1]; Day 3, 40 mg/kg IV, Male",5 min
same,AUC(0-t) dose dependence,[1]; between 40 and 80 mg/kg/day dose groups,increased in a dose-dependent manner
same,half-life,"[1]; both sexes, intravenous, 80 mg/kg, both doses (40 and 80 mg/kg), read-out: half-life (T1/2)",1.4 to 2.34 h
same,clearance,"[1]; both sexes, intravenous, day 1 and day 3 of dosing, read-out: clearance (CL)",12.4 to 18.3 mL/min/kg
same,Vd,"[1]; both sexes, intravenous, day 1 and day 3 of dosing, read-out: volume of distribution (Vd)",1.51 to 3.72 L/kg
same,AUC(0-t),"[1]; female, iv, 40 mg/kg, Day 1, 40 mg/kg IV, Female",53900 ± 2860 ng·h/mL
same,clearance,"[1]; female, iv, 40 mg/kg, Day 1, 40 mg/kg IV, Female, read-out: Cl (converted)",12.4 mL/min/kg
same,Cmax,"[1]; female, iv, 40 mg/kg, Day 1, 40 mg/kg IV, Female, read-out: Cmax ± SE",129000 ng/mL and 377 µM
same,half-life,"[1]; female, iv, 40 mg/kg, Day 1, 40 mg/kg IV, Female, read-out: T1/2 (converted)",1.4 h
same,Vd,"[1]; female, iv, 40 mg/kg, Day 1, 40 mg/kg IV, Female, read-out: Vd",1.51 L/kg
same,AUC(0-t),"[1]; female, iv, 40 mg/kg, Day 3, 40 mg/kg IV, Female",36600 ng·h/mL
same,clearance,"[1]; female, iv, 40 mg/kg, Day 3, 40 mg/kg IV, Female, read-out: Cl (converted)",18.3 mL/min/kg
same,Cmax,"[1]; female, iv, 40 mg/kg, Day 3, 40 mg/kg IV, Female, read-out: Cmax ± SE",90400 ng/mL and 264 µM
same,half-life,"[1]; female, iv, 40 mg/kg, Day 3, 40 mg/kg IV, Female, read-out: T1/2 (converted)",2.34 h
same,Vd,"[1]; female, iv, 40 mg/kg, Day 3, 40 mg/kg IV, Female, read-out: Vd",3.72 L/kg
same,AUC(0-t),"[1]; female, iv, 80 mg/kg, Day 1, 80 mg/kg IV, Female",101000 ng·h/mL
same,clearance,"[1]; female, iv, 80 mg/kg, Day 1, 80 mg/kg IV, Female, read-out: Cl (converted)",13.4 mL/min/kg
same,Cmax,"[1]; female, iv, 80 mg/kg, Day 1, 80 mg/kg IV, Female, read-out: Cmax ± SE",237000 ng/mL and 692 µM
same,half-life,"[1]; female, iv, 80 mg/kg, Day 1, 80 mg/kg IV, Female, read-out: T1/2 (converted)",1.45 h
same,Vd,"[1]; female, iv, 80 mg/kg, Day 1, 80 mg/kg IV, Female, read-out: Vd",1.68 L/kg
same,AUC(0-t),"[1]; female, iv, 80 mg/kg, Day 3, 80 mg/kg IV, Female",95800 ng·h/mL
same,clearance,"[1]; female, iv, 80 mg/kg, Day 3, 80 mg/kg IV, Female, read-out: Cl (converted)",14 mL/min/kg
same,Cmax,"[1]; female, iv, 80 mg/kg, Day 3, 80 mg/kg IV, Female, read-out: Cmax ± SE",227000 ng/mL and 663 µM
same,half-life,"[1]; female, iv, 80 mg/kg, Day 3, 80 mg/kg IV, Female, read-out: T1/2 (converted)",2.05 h
same,Vd,"[1]; female, iv, 80 mg/kg, Day 3, 80 mg/kg IV, Female, read-out: Vd",2.48 L/kg
same,AUC(0-t),"[1]; male, iv, 40 mg/kg, Day 1, 40 mg/kg IV, Male",49800 ± 962 ng·h/mL
same,clearance,"[1]; male, iv, 40 mg/kg, Day 1, 40 mg/kg IV, Male, read-out: Cl (converted)",13.4 mL/min/kg
same,Cmax,"[1]; male, iv, 40 mg/kg, Day 1, 40 mg/kg IV, Male, read-out: Cmax ± SE",351 µM and 120000 ng/mL
same,half-life,"[1]; male, iv, 40 mg/kg, Day 1, 40 mg/kg IV, Male, read-out: T1/2 (converted)",1.64 h
same,Vd,"[1]; male, iv, 40 mg/kg, Day 1, 40 mg/kg IV, Male, read-out: Vd",1.91 L/kg
same,AUC(0-t),"[1]; male, iv, 40 mg/kg, Day 3, 40 mg/kg IV, Male",46200 ng·h/mL
same,clearance,"[1]; male, iv, 40 mg/kg, Day 3, 40 mg/kg IV, Male, read-out: Cl (converted)",14.5 mL/min/kg
same,Cmax,"[1]; male, iv, 40 mg/kg, Day 3, 40 mg/kg IV, Male, read-out: Cmax ± SE",115000 ng/mL and 336 µM
same,half-life,"[1]; male, iv, 40 mg/kg, Day 3, 40 mg/kg IV, Male, read-out: T1/2 (converted)",2.16 h
same,Vd,"[1]; male, iv, 40 mg/kg, Day 3, 40 mg/kg IV, Male, read-out: Vd",2.71 L/kg
same,AUC(0-t),"[1]; male, iv, 80 mg/kg, Day 1, 80 mg/kg IV, Male",118000 ng·h/mL
same,clearance,"[1]; male, iv, 80 mg/kg, Day 1, 80 mg/kg IV, Male, read-out: Cl (converted)",11.3 mL/min/kg
same,Cmax,"[1]; male, iv, 80 mg/kg, Day 1, 80 mg/kg IV, Male, read-out: Cmax ± SE",276000 ng/mL and 806 µM
same,half-life,"[1]; male, iv, 80 mg/kg, Day 1, 80 mg/kg IV, Male, read-out: T1/2 (converted)",2.05 h
same,Vd,"[1]; male, iv, 80 mg/kg, Day 1, 80 mg/kg IV, Male, read-out: Vd",2.02 L/kg
same,AUC(0-t),"[1]; male, iv, 80 mg/kg, Day 3, 80 mg/kg IV, Male",91500 ng·h/mL
same,clearance,"[1]; male, iv, 80 mg/kg, Day 3, 80 mg/kg IV, Male, read-out: Cl (converted)",14.7 mL/min/kg
same,Cmax,"[1]; male, iv, 80 mg/kg, Day 3, 80 mg/kg IV, Male, read-out: Cmax ± SE",190000 ng/mL and 555 µM
same,half-life,"[1]; male, iv, 80 mg/kg, Day 3, 80 mg/kg IV, Male, read-out: T1/2 (converted)",1.42 h
same,Vd,"[1]; male, iv, 80 mg/kg, Day 3, 80 mg/kg IV, Male, read-out: Vd",1.8 L/kg
same,accumulation,[1]; three days of twice daily administration,no accumulation
same,lung injury score vs CLP group,"CLP-induced sepsis mice; AVR-48 10 mg/kg IV at 16 h and 24 h, sacrificed after 72 h, p < 0.001",significant recovery
same,appearance of the lung (histopathology),CLP-induced sepsis mice; [2],decreased inflammation and hemorrhage
same,histopathological changes in other vital organs vs CLP-only group,CLP-induced sepsis mice; [2],dramatic improvement
same,"Injury score: Brain, Neuronal Damage",CLP-induced sepsis mice; [3],3.6± 0.245
same,"Injury score: Brain, Vascular Congestion & Hemorrhage",CLP-induced sepsis mice; [3],3.4± 0.245
same,"Injury score: Gut, MVD",CLP-induced sepsis mice; [3],3.6± 0.245
same,"Injury score: Gut, Vascular Congestion & Hemorrhage",CLP-induced sepsis mice; [3],3.6± 0.245
same,"Injury score: Heart, Myocardial Damage",CLP-induced sepsis mice; [3],3.4± 0.245
same,"Injury score: Heart, Vascular Congestion & Hemorrhage",CLP-induced sepsis mice; [3],3.4± 0.4
same,"Injury score: Kidney, Glomerular Damage",CLP-induced sepsis mice; [3],3.6± 0.245
same,"Injury score: Kidney, Glomerular Injury",CLP-induced sepsis mice; [3],3.6± 0.245
same,"Injury score: Kidney, Vascular Congestion & Hemorrhage",CLP-induced sepsis mice; [3],3.6± 0.245
same,"Injury score: Liver, Hepatocyte Injury",CLP-induced sepsis mice; [3],3.6± 0.245
same,"Injury score: Liver, Vascular Congestion & Hemorrhage",CLP-induced sepsis mice; [3],3.6± 0.245
same,"Injury score: Lung, Alveolar Damage",CLP-induced sepsis mice; [3],3.6± 0.245
same,"Injury score: Lung, Vascular Congestion and Hemorrhage",CLP-induced sepsis mice; [3],3.6± 0.245
same,"Injury score: Lymph Node, Follicular Damage",CLP-induced sepsis mice; [3],3.4± 0.245
same,"Injury score: Spleen, Vascular Congestion & Hemorrhage",CLP-induced sepsis mice; [3],3.6± 0.245
same,"Injury score: Testis, Tubular Damage",CLP-induced sepsis mice; [3],3.6± 0.245
same,"Injury score: Testis, Vascular Congestion & Hemorrhage",CLP-induced sepsis mice; [3],3.6± 0.245
